Data as given in patent publication US20200239530A1, “COMPOUNDS AND METHODS OF MODULATING PROTEIN DEGRADATION” (Vividion Therapeutics, Inc., priority 2017, published 2020).

What was measured:
[1] = target: T1, TRMT1L TRMT1-like protein (Homo sapiens, UniProt Q7Z2T5); assay: Cysteine liganding, probe competition; format: binding
T1 construct: Cells were resuspended in cold PBS on ice and sonicated with a probe sonicator to achieve lysis; endogenous in cells
T1 sequence (Q7Z2T5 1-733): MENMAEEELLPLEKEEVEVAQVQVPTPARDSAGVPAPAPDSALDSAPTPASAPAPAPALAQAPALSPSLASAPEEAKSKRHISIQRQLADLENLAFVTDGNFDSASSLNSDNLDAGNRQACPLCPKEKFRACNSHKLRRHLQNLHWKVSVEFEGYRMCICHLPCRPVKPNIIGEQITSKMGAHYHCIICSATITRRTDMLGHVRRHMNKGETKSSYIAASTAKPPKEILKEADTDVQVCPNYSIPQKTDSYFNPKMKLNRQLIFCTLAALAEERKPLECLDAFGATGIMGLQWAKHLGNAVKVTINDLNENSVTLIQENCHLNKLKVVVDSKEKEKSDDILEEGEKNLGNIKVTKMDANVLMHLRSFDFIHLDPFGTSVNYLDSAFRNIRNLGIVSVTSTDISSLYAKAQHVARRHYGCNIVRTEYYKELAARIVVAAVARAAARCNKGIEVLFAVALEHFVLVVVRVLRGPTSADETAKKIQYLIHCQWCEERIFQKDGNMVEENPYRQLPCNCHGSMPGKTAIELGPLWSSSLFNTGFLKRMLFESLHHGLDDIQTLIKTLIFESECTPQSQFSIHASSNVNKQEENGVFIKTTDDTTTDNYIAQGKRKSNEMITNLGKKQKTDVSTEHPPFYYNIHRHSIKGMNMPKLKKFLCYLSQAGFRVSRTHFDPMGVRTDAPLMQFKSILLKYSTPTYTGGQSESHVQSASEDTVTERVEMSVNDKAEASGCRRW
In short: (§1)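 Read-out is loss of desthiobiotin iodoacetamide labelling at cysteines, measured on streptavidin-enriched tryptic peptides. Compound preincubation ran 1 hr at 25° C in PBS lysate holding 5 mg/ml proteome before the probe was added.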

[2] = target: T2, ZNF318 Zinc finger protein 318 (Homo sapiens, UniProt Q5VUA4); assay: Cysteine liganding, probe competition; format: binding
T2 construct: Cells were resuspended in cold PBS on ice and sonicated with a probe sonicator to achieve lysis; endogenous in cells
In short: as §1

[3] = uniprot Q7Z2T5, in % (unit assumed)

T2 sequence (Q5VUA4 whole entry): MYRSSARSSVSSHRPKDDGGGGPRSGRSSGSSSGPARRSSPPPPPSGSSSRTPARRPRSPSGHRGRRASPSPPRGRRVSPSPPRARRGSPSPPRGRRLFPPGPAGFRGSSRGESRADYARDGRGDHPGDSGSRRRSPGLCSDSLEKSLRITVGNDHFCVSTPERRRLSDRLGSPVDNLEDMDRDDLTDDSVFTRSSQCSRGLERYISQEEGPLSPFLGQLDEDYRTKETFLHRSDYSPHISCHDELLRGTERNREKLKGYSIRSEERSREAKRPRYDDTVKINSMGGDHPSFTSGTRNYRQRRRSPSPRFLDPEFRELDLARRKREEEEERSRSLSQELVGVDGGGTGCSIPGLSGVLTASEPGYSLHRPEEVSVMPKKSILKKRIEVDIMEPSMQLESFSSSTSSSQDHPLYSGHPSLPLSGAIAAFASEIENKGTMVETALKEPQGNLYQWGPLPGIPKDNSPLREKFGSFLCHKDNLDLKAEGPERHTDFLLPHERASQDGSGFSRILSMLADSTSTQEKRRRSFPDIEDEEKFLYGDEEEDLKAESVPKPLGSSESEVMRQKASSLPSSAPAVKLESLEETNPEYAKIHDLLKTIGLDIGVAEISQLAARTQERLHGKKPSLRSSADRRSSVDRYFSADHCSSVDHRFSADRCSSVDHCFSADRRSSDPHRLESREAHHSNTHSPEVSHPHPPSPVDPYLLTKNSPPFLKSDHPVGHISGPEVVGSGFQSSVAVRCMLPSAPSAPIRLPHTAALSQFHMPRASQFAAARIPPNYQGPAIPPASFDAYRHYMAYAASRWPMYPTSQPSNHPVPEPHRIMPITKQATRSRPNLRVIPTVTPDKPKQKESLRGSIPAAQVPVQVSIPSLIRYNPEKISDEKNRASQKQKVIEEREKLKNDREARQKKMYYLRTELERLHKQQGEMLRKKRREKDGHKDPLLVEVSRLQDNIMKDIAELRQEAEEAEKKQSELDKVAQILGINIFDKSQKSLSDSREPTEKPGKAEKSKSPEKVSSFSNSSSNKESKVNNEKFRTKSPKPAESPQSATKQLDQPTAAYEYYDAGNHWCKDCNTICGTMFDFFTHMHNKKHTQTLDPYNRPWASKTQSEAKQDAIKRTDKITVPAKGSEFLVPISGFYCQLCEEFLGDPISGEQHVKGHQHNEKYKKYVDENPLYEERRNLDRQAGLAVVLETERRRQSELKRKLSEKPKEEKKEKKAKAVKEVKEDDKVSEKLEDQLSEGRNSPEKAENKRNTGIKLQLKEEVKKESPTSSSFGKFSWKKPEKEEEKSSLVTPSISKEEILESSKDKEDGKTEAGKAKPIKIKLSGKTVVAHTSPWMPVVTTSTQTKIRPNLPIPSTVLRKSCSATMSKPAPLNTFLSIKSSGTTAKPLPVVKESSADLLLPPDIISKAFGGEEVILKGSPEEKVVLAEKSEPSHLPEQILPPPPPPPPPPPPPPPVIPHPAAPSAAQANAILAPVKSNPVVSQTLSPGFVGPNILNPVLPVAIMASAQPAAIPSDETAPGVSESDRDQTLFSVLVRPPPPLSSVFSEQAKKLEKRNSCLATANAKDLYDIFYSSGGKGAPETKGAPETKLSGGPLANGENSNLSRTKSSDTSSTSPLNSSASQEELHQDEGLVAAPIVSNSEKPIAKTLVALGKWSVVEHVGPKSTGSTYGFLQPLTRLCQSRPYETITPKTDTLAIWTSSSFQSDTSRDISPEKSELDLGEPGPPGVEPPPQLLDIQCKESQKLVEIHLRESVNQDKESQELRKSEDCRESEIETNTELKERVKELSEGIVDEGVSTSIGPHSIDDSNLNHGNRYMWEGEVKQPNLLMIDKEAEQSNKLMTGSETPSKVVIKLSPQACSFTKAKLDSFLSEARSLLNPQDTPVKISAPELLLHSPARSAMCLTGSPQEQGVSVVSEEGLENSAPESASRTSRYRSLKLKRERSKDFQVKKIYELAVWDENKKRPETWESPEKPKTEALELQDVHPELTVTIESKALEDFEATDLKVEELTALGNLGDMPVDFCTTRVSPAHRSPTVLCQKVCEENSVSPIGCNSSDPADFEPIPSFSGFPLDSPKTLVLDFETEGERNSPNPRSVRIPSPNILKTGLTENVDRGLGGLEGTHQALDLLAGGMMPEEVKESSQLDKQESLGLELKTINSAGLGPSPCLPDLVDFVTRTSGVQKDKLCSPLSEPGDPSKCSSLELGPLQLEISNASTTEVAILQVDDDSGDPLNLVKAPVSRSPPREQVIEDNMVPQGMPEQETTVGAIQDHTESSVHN

Row | Structure (SMILES) | Liganded ([1]; TRMT1L Res# 239, uniprot Q7Z2T5) | Liganded ([2]; ZNF318 Res# 1681, uniprot Q5VUA4) | 100 ave ([1]; uniprot Q7Z2T5) | 500 ave ([1]; uniprot Q7Z2T5) | 100 Max [1, 3] | 500 Max [1, 3] | 100 Max ([2]; uniprot Q5VUA4) | 100 ave ([2]; uniprot Q5VUA4) | 500 Max ([2]; uniprot Q5VUA4) | 500 ave ([2]; uniprot Q5VUA4)
1 | COc1ccc2c(c1)CCCN2C(=O)CCl [KB02] | YES | YES | – | – | – | – | – | – | – | –
2 | O=C(CCl)Nc1cc(C(F)(F)F)cc(C(F)(F)F)c1 [KBO3] | – | – | −17.83 | 36.38 | −4.62 | 36.38 | −1.63 | −8.115 | 55.07 | 40.555
